From patent publication US20220363727A1, “ANTIBACTERIAL PEPTIDE DERIVED FROM ERYTHROCULTER ILISHAEFORMIS AND USE THEREOF” (SOOCHOW UNIVERSITY, priority 2020, published 2022)
Values after ≈ are worked out from the molar mass of the structure shown. Where two headings read alike, the source gives them in different places. Bridge positions count the residues as written; N and C are the ends. Ends that are not written are not given here.

Tests used:
Assay type in all cases: cell-based
[1] = test system: Aeromonas hydrophila (penicillin-resistant strain); assay: Kinetic analysis of antibacterial action (CFU counts over time); details: for Number of bacteria co-cultured with sample: LEAP-2 5×MIC 93.75 μg/mL
Description: Aeromonas hydrophila (penicillin-resistant strain) was cultured to the logarithmic phase and diluted with fresh nutrient broth medium to 10^5 CFU/mL. […] At each time point, 50 μL of bacterial solution was taken and diluted 1000 times with nutrient broth medium. Then 50 μL of the dilution was spread on a nutrient broth agarose plate. After culturing at 37° C. for 12 hours, the CFU was calculated.

[2] = test system: Aeromonas sobria; assay: microbe, parasite or virus in culture
Description: (§1) The antibacterial activity of LEAP-2 from Erythroculter ilishaeformis (having the amino acid sequence as shown in SEQ ID NO: 1) against fish pathogens was tested by a two-fold dilution method. […] Aeromonas sobria, Aeromonas hydrophila, Vibrio harveyi, Vibrio parahaemolyticus, Vibrio anguillarum, Vibrio vulnificus, Vibrio splendidus and Vibrio cholerae were cultured in a nutrient broth medium to the logarithmic phase, and then diluted with fresh nutrient broth medium to 10^5 CFU/mL. Then, 50 μL of diluted bacterial solution was added to each well of the 96-well plate containing the prepared two-fold dilution of LEAP-2 from Erythroculter ilishaeformis. After culturing at 37° C. for 18 hours, the minimal inhibitory concentration (MIC) was measured.

[3] = test system: Vibrio vulnificus; assay: microbe, parasite or virus in culture
Description: as §1

[4] = test system: Vibrio parahaemolyticus; assay: microbe, parasite or virus in culture
Description: as §1

[5] = test system: Vibrio splendidus; assay: microbe, parasite or virus in culture
Description: as §1

[6] = test system: Aeromonas hydrophila; assay: microbe, parasite or virus in culture
Description: as §1

[7] = test system: Vibrio harveyi; assay: microbe, parasite or virus in culture
Description: as §1

[8] = test system: Vibrio anguillarum; assay: microbe, parasite or virus in culture
Description: as §1

[9] = test system: Vibrio cholerae; assay: MIC by two-fold dilution method
Description: as §1

[10] = test system: V. harveyi; assay: Checkerboard test for synergy of LEAP-2 and ampicillin; details: Vibrio harveyi; for MIC used in combination: ampicillin and LEAP-2 used in combination
Description: (§2) 50 μL was added to each well, and uniformly mixed. […] 100 μL of bacterial solution was added to each well.

[11] = test system: V. parahaemolyticus; assay: as above; details: Vibrio parahaemolyticus; for MIC used in combination: ampicillin and LEAP-2 used in combination
Description: as §2

Compound: CC1(C)S[C@@H]2[C@H](NC(=O)[C@H](N)c3ccccc3)C(=O)N2[C@H]1C(=O)O [Ampicillin]
- Number of bacteria co-cultured with sample ([1]; 0 min, ampicillin 1 mg/mL): 67 ± 7.5 ×10^3, CFUs/mL
- Number of bacteria co-cultured with sample ([1]; 10 min, ampicillin 1 mg/mL): 69 ± 8.1 ×10^3, CFUs/mL
- Number of bacteria co-cultured with sample ([1]; 20 min, ampicillin 1 mg/mL): 70 ± 7.2 ×10^3, CFUs/mL
- Number of bacteria co-cultured with sample ([1]; 30 min, ampicillin 1 mg/mL): 72 ± 6.9 ×10^3, CFUs/mL
- Number of bacteria co-cultured with sample ([1]; 45 min, ampicillin 1 mg/mL): 85 ± 6.9 ×10^3, CFUs/mL
- Number of bacteria co-cultured with sample ([1]; 90 min, ampicillin 1 mg/mL): 197 ± 12.6 ×10^3, CFUs/mL
- Number of bacteria co-cultured with sample ([1]; 120 min, ampicillin 1 mg/mL): 378 ± 41.5 ×10^3, CFUs/mL
- Number of bacteria co-cultured with sample ([1]; 180 min, ampicillin 1 mg/mL): 961 ± 87.3 ×10^3, CFUs/mL
- CFU of Aeromonas hydrophila after 180 minutes of incubation ([1]; ampicillin 1 mg/mL, 2862.0 μM, 180 minutes): 9.6×10^5 CFUs/mL
- CFU of Aeromonas hydrophila at start ([1]; ampicillin 1 mg/mL, 2862.0 μM, before incubation): 6.7×10^4 CFUs/mL
- MIC ([2]; Aeromonas sobria, 37° C., 18 hours, average of three experiments): >200 mg/L
- MIC ([2]; Aeromonas sobria, 37° C., 18 hours, average of three experiments, read-out: MIC): > 200 mg/L
- MIC ([3]; Vibrio vulnificus, 37° C., 18 hours, average of three experiments): >200 mg/L
- MIC ([3]; Vibrio vulnificus, 37° C., 18 hours, average of three experiments, read-out: MIC): > 200 mg/L
- MIC ([4]; Vibrio parahaemolyticus, 37° C., 18 hours, average of three experiments, read-out: MIC): 18.8 mg/L (≈ 53.7 µM)
- MIC ([5]; Vibrio splendidus, 37° C., 18 hours, average of three experiments): >200 mg/L
- MIC ([5]; Vibrio splendidus, 37° C., 18 hours, average of three experiments, read-out: MIC): > 200 mg/L
- MIC ([6]; Aeromonas hydrophila, 37° C., 18 hours, average of three experiments): >200 mg/L
- MIC ([6]; Aeromonas hydrophila, 37° C., 18 hours, average of three experiments, read-out: MIC): > 200 mg/L
- MIC ([7]; Vibrio harveyi, 37° C., 18 hours, average of three experiments, read-out: MIC): 37.5 mg/L (≈ 107 µM)
- MIC ([8]; Vibrio anguillarum, 37° C., 18 hours, average of three experiments): >200 mg/L
- MIC ([8]; Vibrio anguillarum, 37° C., 18 hours, average of three experiments, read-out: MIC): > 200 mg/L
- MIC ([9]; 37° C., 18 hours, average of three experiments): >200 mg/L
- MIC ([9]; 18 h): > 200 mg/L
- MIC ([10]; read-out: MIC used alone): 37.5 mg/L
- MIC used in combination [10]: 4.69 mg/L
- MIC ([11]; read-out: MIC used alone): 18.8 mg/L
- FIC ([11]; MIC in combination/MIC alone): 0.25
- MIC used in combination [11]: 4.69 mg/L

Compound: MTPLWRIMLLFKPHALCQNNYACSTGLCRYGHCSALQTILS (disulfide 17-28, 23-33) [LEAP-2]
- Number of bacteria co-cultured with sample ([1]; 0 min, ampicillin 1 mg/mL): 65 ± 5.3 ×10^3, CFUs/mL
- time to kill all bacteria ([1]; 5×MIC, i.e., 20.2 μM): ≤ 60 min
- Number of bacteria co-cultured with sample ([1]; 10 min, ampicillin 1 mg/mL): 59 ± 7.4 ×10^3, CFUs/mL
- Number of bacteria co-cultured with sample ([1]; 20 min, ampicillin 1 mg/mL): 40 ± 8.4 ×10^3, CFUs/mL
- Number of bacteria co-cultured with sample ([1]; 30 min, ampicillin 1 mg/mL): 28 ± 5.9 ×10^3, CFUs/mL
- Number of bacteria co-cultured with sample ([1]; 45 min, ampicillin 1 mg/mL): 11 ± 3.5 ×10^3, CFUs/mL
- Number of bacteria co-cultured with sample ([1]; 60 min, ampicillin 1 mg/mL): 0 ×10^3, CFUs/mL
- Number of bacteria co-cultured with sample ([1]; 90 min, ampicillin 1 mg/mL): 0 ×10^3, CFUs/mL
- Number of bacteria co-cultured with sample ([1]; 120 min, ampicillin 1 mg/mL): 0 ×10^3, CFUs/mL
- Number of bacteria co-cultured with sample ([1]; 180 min, ampicillin 1 mg/mL): 0 ×10^3, CFUs/mL
- MIC ([2]; 18 h): 75 mg/L
- MIC (molar, in brackets) ([2]; Aeromonas sobria, converted from μg/mL): (16.1 μM)
- MIC ([3]; 18 h): 37.5 mg/L
- MIC (molar, in brackets) ([3]; Vibrio vulnificus, converted from μg/mL): (8.1 μM)
- MIC ([4]; 18 h): 75 mg/L
- MIC (molar, in brackets) ([4]; Vibrio parahaemolyticus, converted from μg/mL): (16.1 μM)
- MIC ([5]; 18 h): 150 mg/L
- MIC (molar, in brackets) ([5]; Vibrio splendidus, converted from μg/mL): (32.2 μM)
- MIC ([6]; 18 h): 18.75 mg/L
- MIC (molar, in brackets) ([6]; Aeromonas hydrophila, converted from μg/mL): (4.0 μM)
- MIC ([7]; 18 h): 75 mg/L
- MIC (molar, in brackets) ([7]; Vibrio harveyi, converted from μg/mL): (16.1 μM)
- MIC ([8]; 18 h): 150 mg/L
- MIC (molar, in brackets) ([8]; Vibrio anguillarum, converted from μg/mL): (32.2 μM)
- MIC (molar, in brackets) ([9]; converted from μg/mL): (8.1 μM)
- MIC used in combination [10]: 18.75 mg/L
- MIC used in combination [11]: 18.75 mg/L
